Assay results as given in patent publication US11141494B2, “Development of neurokinin-1 receptor-binding agent delivery conjugates” (PURDUE RESEARCH FOUNDATION, priority 2014, dated 2021).

Tests used:
[1] = tested on: NKIR-transduced xenografts (HEK 293-NKIR) versus non-transduced xenografts (HEK 293-WT); experiment: PET imaging of 64Cu-labeled NK1R ligand conjugate in tumor xenograft mice (ROI activity, % ID/mL); type: in vivo, athymic nude mice; conditions: intravenous
Method: A NK-1 receptor-binding radionuclide delivery conjugate was prepared that contained NK1RL, a PEG2 linker, and ^64Cu-labeled chelator (radiochemical purity: 99%) with Specific Activity (SA) of 3.7 MBq/μg. Four NKIR-transduced xenografts (HEK 293-NKIR) were prepared, as well as four non-transduced xenografts (HEK 293-WT) using athymic nude mice. Doses of 140-160 uCi (˜[…]) of ligand per mouse were intravenously administered, and the models were imaged at 1, 4 and 20 hours post-injection using PET. The images were analyzed in a region of interest (ROI) around the tumor xenograft activity, and percentage injected dose per mL (% ID/mL) values were calculated from the mean activity in the ROIs. FIG. 8A is a plot showing ROI activity for the NK1R-transduced and non-transduced xenografts. […] FIG. 8B is a plot showing the ^64Cu—NK1R ligand uptake ratio between the NK1R-transduced and non-transduced xenografts in various areas at 20 hours post-injection.

[2] = in terms of human activity and metabolism; cited from earlier work

| SMILES | accumulation in NK1R-transduced versus non-transduced xenografts (ROI activity) ([1]; PET at 1, 4 and 20 hours post-injection, HEK 293-NKIR and HEK 293-WT xenografts) | time post-injection at which the ratio between NK1R-transduced and non-transduced xenografts was highest ([1]; PET imaged at 1, 4 and 20 hours post-injection) | biological half-life [2] |
| --- | --- | --- | --- |
| O=C(O)CN1CCN(CC(=O)O)CCN(CC(=O)NCCOCCOCCNC(=O)CN2CCC[C@H](OCc3cc(C(F)(F)F)cc(C(F)(F)F)c3)[C@@H]2c2ccccc2)CC1 [NK1RL-PEG2-NOTA-^64Cu conjugate, metal not drawn] | specifically accumulated in NK1R-transduced xenografts, but not in non-transduced murine model xenografts | 20 h | – |
| [99Tc] [^99mTc, technetium-99m] | – | – | 1 day |
